# Source: patent publication US9416111B2, “Substituted diazine and triazine spleen tyrosine kinease (Syk) inhibitors” (Merck Sharp & Dohme Corp., priority 2012, dated 2016)
# Molecular target: T1, recombinant human GST-SYK (Homo sapiens, UniProt P43405)
# T1 construct: purchased Carna Biosciences 08-176
# Test: Homogeneous Time-Resolved Fluorescence (HTRF) assay for the recombinant human Syk enzyme
# Format: biochemical
# Settings: GST-hSYK 5 pM, ATP 25 μM, IC50 rated in classes, read-out: rhSYK Activity
# Summary of the method: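 GST-hSYK (5 pM) was preincubated 10 min with inhibitor in 15 mM Tris-HCl pH 7.5, 0.01% tween 20, 2 mM DTT; reaction started with 250 nM biotinylated peptide, 5 mM Mg and 25 μM ATP, run 45 min at room temperature. Phosphopeptide detected by HTRF (Eu-anti-phosphotyrosine/SA-APC) after EDTA quench.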
row,Compound,IC50 [nM]
1,"Cc1cc(Nc2nccc(C3CC3)n2)cc(-c2cnc(CCC(=O)O)cn2)c1 [Example 3.12, 3-(5-{3-[(4-cyclopropylpyrimidin-2-yl)amino]-5-methylphenyl}pyrazin-2-yl)propanoic acid]",< 100
2,"CCOC(=O)CCc1cncc(-c2cccc(Nc3nccc(C(F)(F)F)n3)c2)n1 [Example 3.13, ethyl 3-[6-(3-{[4-(trifluoromethyl)pyrimidin-2-yl]amino}phenyl)pyrazin-2-yl]propanoate]",1000 to 10000
3,"O=C(O)CCc1cncc(-c2cccc(Nc3nccc(C(F)(F)F)n3)c2)n1 [Example 3.14, 3-[6-(3-{[4-(trifluoromethyl)pyrimidin-2-yl]amino}phenyl)pyrazin-2-yl]propanoic acid]",100 to 1000
4,"COc1ccnc(Nc2cc(C)cc(-c3cncc(CCC(=O)O)n3)c2)n1 [Example 3.16, 3-(6-{3-[(4-methoxypyrimidin-2-yl)amino]-5-methylphenyl}pyrazin-2-yl)propanoic acid]",< 100
5,"CCOC(=O)CCc1cncc(-c2cc(C)cc(Nc3nccc(C(F)(F)F)n3)c2)n1 [Example 3.17, ethyl 3-[6-(3-methyl-5-{[4-(trifluoromethyl)pyrimidin-2-yl]amino}phenyl)pyrazin-2-yl]propanoate]",100 to 1000
6,"Cc1cc(Nc2nccc(C(F)(F)F)n2)cc(-c2cncc(CCC(=O)O)n2)c1 [Example 3.18, 3-[6-(3-methyl-5-{[4-(trifluoromethyl)pyrimidin-2-yl]amino}phenyl)pyrazin-2-yl]propanoic acid]",< 100
7,"CCOC(=O)CCc1cncc(-c2cc(C)cc(Nc3nccc(C)n3)c2)n1 [Example 3.19, ethyl 3-(6-{3-methyl-5-[(4-methylpyrimidin-2-yl)amino]phenyl}pyrazin-2-yl)propanoate]",100 to 1000
8,"Cc1cc(Nc2nccc(C)n2)cc(-c2cncc(CCC(=O)O)n2)c1 [Example 3.20, 3-(6-{3-methyl-5-[(4-methylpyrimidin-2-yl)amino]phenyl}pyrazin-2-yl)propanoic acid]",100 to 1000
9,"CCOC(=O)CCc1cncc(-c2cc(C)cc(Nc3nccc(C4CC4)n3)c2)n1 [Example 3.21, ethyl 3-(6-{3-[(4-cyclopropylpyrimidin-2-yl)amino]-5-methylphenyl}pyrazin-2-yl)propanoate]",100 to 1000
10,"Cc1cc(Nc2nccc(C3CC3)n2)cc(-c2cncc(CCC(=O)O)n2)c1 [Example 3.22, 3-(6-{3-[(4-cyclopropylpyrimidin-2-yl)amino]-5-methylphenyl}pyrazin-2-yl)propanoic acid]",< 100
11,"Cc1cc(Nc2nccc(C(F)(F)F)n2)cc(-c2ncccn2)c1 [Example 3.23, N-(3-methyl-5-pyrimidin-2-ylphenyl)-4-(trifluoromethyl)pyrimidin-2-amine]",100 to 1000
12,"CCOC(=O)CCc1ccc(-c2cccc(Nc3nccc(C(F)(F)F)n3)c2)nn1 [Example 3.24, ethyl 3-[6-(3-{[4-(trifluoromethyl)pyrimidin-2-yl]amino}phenyl)pyridazin-3-yl]propanoate]",1000 to 10000
13,"O=C(O)CCc1ccc(-c2cccc(Nc3nccc(C(F)(F)F)n3)c2)nn1 [Example 3.25, 3-[6-(3-{[4-(trifluoromethyl)pyrimidin-2-yl]amino}phenyl)pyridazin-3-yl]propanoic acid]",100 to 1000
14,"CCOC(=O)CCc1ccc(-c2cc(C)cc(Nc3nccc(C(F)(F)F)n3)c2)nn1 [Example 3.27, ethyl 3-[6-(3-methyl-5-{[4-(trifluoromethyl)pyrimidin-2-yl]amino}phenyl)pyridazin-3-yl]propanoate]",100 to 1000
15,"Cc1cc(Nc2nccc(C(F)(F)F)n2)cc(-c2cccnn2)c1 [Example 3.28, N-(3-methyl-5-pyridazin-3-ylphenyl)-4-(trifluoromethyl)pyrimidin-2-amine]",100 to 1000
16,"Cc1cc(Nc2nccc(C(F)(F)F)n2)cc(-c2ccc(N3CCOCC3)nn2)c1 [Example 3.29, N-[3-methyl-5-(6-morpholin-4-ylpyridazin-3-yl)phenyl]-4-(trifluoromethyl)pyrimidin-2-amine]",100 to 1000
17,"Cc1cc(Nc2nccc(C(F)(F)F)n2)cc(-c2ccc(N3CCC(O)CC3)nn2)c1 [Example 3.30, 1-[6-(3-methyl-5-{[4-(trifluoromethyl)pyrimidin-2-yl]amino}phenyl)pyridazin-3-yl]piperidin-4-ol]",100 to 1000
18,"Cc1cc(Nc2nccc(C(F)(F)F)n2)cc(-c2ccc(N3CCC(C(N)=O)CC3)nn2)c1 [Example 3.31, 1-[6-(3-methyl-5-{[4-(trifluoromethyl)pyrimidin-2-yl]amino}phenyl)pyridazin-3-yl]piperidine-4-carboxamide]",< 100
19,"Cc1cc(Nc2nccc(C(F)(F)F)n2)cc(-c2ccc(-c3cccc(C(=O)O)c3)nn2)c1 [Example 3.32, 3-[6-(3-methyl-5-{[4-(trifluoromethyl)pyrimidin-2-yl]amino}phenyl)pyridazin-3-yl]benzoic acid]",< 100

row,Compound,IC50 [nM]
1,"Cc1cc(Nc2nccc(C(F)(F)F)n2)cc(-c2ccc(-c3ccc(C(=O)O)cc3)nn2)c1 [Example 3.33, 4-[6-(3-methyl-5-{[4-(trifluoromethyl)pyrimidin-2-yl]amino}phenyl)pyridazin-3-yl]benzoic acid]",< 100
2,"Cc1cc(Nc2nccc(C(F)(F)F)n2)cc(-c2ccc(OC(C)(C)C(=O)O)nn2)c1 [Example 3.34, 2-methyl-2-{[6-(3-methyl-5-{[4-(trifluoromethyl)pyrimidin-2-yl]amino}phenyl)pyridazin-3-yl]oxy}propanoic acid]",< 100
3,"Cc1cc(Nc2nccc(C(F)(F)F)n2)cc(-c2ccc(N(CCN(C)C)C(=O)N(C)C)nn2)c1 [Example 3.35, 1-[2-(dimethylamino)ethyl]-3,3-dimethyl-1-[6-(3-methyl-5-{[4-(trifluoromethyl)pyrimidin-2-yl]amino}phenyl)pyridazin-3-yl]urea]",100 to 1000
4,"Cc1cc(Nc2nccc(C(F)(F)F)n2)cc(-c2ccc(C(C)(C)O)nn2)c1 [Example 3.36, 2-[6-(3-methyl-5-{[4-(trifluoromethyl)pyrimidin-2-yl]amino}phenyl)pyridazin-3-yl]propan-2-ol]",100 to 1000
5,"Cc1cc(Nc2nccc(C(F)(F)F)n2)cc(-c2ccc(N3CCC(C(=O)O)CC3)nn2)c1 [Example 3.37, 1-[6-(3-methyl-5-{[4-(trifluoromethyl)pyrimidin-2-yl]amino}phenyl)pyridazin-3-yl]piperidine-4-carboxylic acid]",< 100
6,"Cc1cc(Nc2nccc(C(F)(F)F)n2)cc(-c2ccc(N(C)CC(=O)O)nn2)c1 [Example 3.38, N-methyl-N-[6-(3-methyl-5-{[4-(trifluoromethyl)pyrimidin-2-yl]amino}phenyl)pyridazin-3-yl]glycine]",< 100
7,"Cc1cc(Nc2nccc(C(F)(F)F)n2)cc(-c2ccc(CCC(=O)O)nn2)c1 [Example 3.39, 3-[6-(3-methyl-5-{[4-(trifluoromethyl)pyrimidin-2-yl]amino}phenyl)pyridazin-3-yl]propanoic acid]",< 100
8,"CCOC(=O)CCc1ccc(-c2cc(C)cc(Nc3nccc(C)n3)c2)nn1 [Example 3.40, ethyl 3-(6-{3-methyl-5-[(4-methylpyrimidin-2-yl)amino]phenyl}pyridazin-3-yl)propanoate]",100 to 1000
9,"Cc1cc(Nc2nccc(C)n2)cc(-c2ccc(CCC(=O)O)nn2)c1 [Example 3.41, 3-(6-{3-methyl-5-[(4-methylpyrimidin-2-yl)amino]phenyl}pyridazin-3-yl)propanoic acid]",100 to 1000
10,"CCOC(=O)CCc1ccc(-c2cc(C)cc(Nc3nccc(C4CC4)n3)c2)nn1 [Example 3.42, ethyl 3-(6-{3-[(4-cyclopropylpyrimidin-2-yl)amino]-5-methylphenyl}pyridazin-3-yl)propanoate]",100 to 1000
11,"Cc1cc(Nc2nccc(C(F)(F)F)n2)cc(-c2ccnnc2)c1 [Example 3.43, N-(3-methyl-5-pyridazin-4-ylphenyl)-4-(trifluoromethyl)pyrimidin-2-amine]",100 to 1000
12,"CCOC(=O)CCc1cc(-c2cccc(Nc3nccc(C(F)(F)F)n3)c2)ncn1 [Example 3.44, ethyl 3-[6-(3-{[4-(trifluoromethyl)pyrimidin-2-yl]amino}phenyl)pyrimidin-4-yl]propanoate]",1000 to 10000
13,"O=C(O)CCc1cc(-c2cccc(Nc3nccc(C(F)(F)F)n3)c2)ncn1 [Example 3.45, 3-[6-(3-{[4-(trifluoromethyl)pyrimidin-2-yl]amino}phenyl)pyrimidin-4-yl]propanoic acid]",100 to 1000
14,"COc1ccnc(Nc2cc(C)cc(-c3cc(CCC(=O)O)ncn3)c2)n1 [Example 3.47, 3-(6-{3-[(4-methoxypyrimidin-2-yl)amino]-5-methylphenyl}pyrimidin-4-yl)propanoic acid]",100 to 1000
15,"Cc1cc(Nc2nccc(C(F)(F)F)n2)cc(-c2ccncn2)c1 [Example 3.48, N-(3-methyl-5-pyrimidin-4-ylphenyl)-4-(trifluoromethyl)pyrimidin-2-amine]",100 to 1000
16,"CCOC(=O)CCc1cc(-c2cc(C)cc(Nc3nccc(C(F)(F)F)n3)c2)ncn1 [Example 3.49, ethyl 3-[6-(3-methyl-5-{[4-(trifluoromethyl)pyrimidin-2-yl]amino}phenyl)pyrimidin-4-yl]propanoate]",100 to 1000
17,"Cc1cc(Nc2nccc(C(F)(F)F)n2)cc(-c2cc(CCC(=O)O)ncn2)c1 [Example 3.50, 3-[6-(3-methyl-5-{[4-(trifluoromethyl)pyrimidin-2-yl]amino}phenyl)pyrimidin-4-yl]propanoic acid]",100 to 1000
18,"CCOC(=O)CCc1cc(-c2cc(C)cc(Nc3nccc(C)n3)c2)ncn1 [Example 3.51, ethyl 3-(6-{3-methyl-5-[(4-methylpyrimidin-2-yl)amino]phenyl}pyrimidin-4-yl)propanoate]",1000 to 10000
19,"Cc1cc(Nc2nccc(C)n2)cc(-c2cc(CCC(=O)O)ncn2)c1 [Example 3.52, 3-(6-{3-methyl-5-[(4-methylpyrimidin-2-yl)amino]phenyl}pyrimidin-4-yl)propanoic acid]",1000 to 10000
